Laboratory results: patent US20230033582A1, “POLYMERIC NANOPARTICLES FOR ENHANCED CANCER TREATMENT” (THE QUEEN'S UNIVERSITY OF BELFAST, priority 2019, published 2023)

Columns and labels:
MC38 cells = experiment: Flow cytometry of SIINFEKL presentation on MHC I (SIINFEKL-bound MHC antibody) in MC38 cells; type: cell-based; conditions: for presentation of NP-encapsulated OVA-derived SIINFEKL after pre-treatment: then OVA-NPs for 6 hours
Protocol: FIG. 8: illustrate the results of Gemcitabine enhances SIINFEKL presentation: MC38 cells were pretreated with 30 nm Gemcitabine for 24 hours. Then, cells were treated with 1 μM SIINFEKL peptide for 6 hours. After 6 hours, cells were stained with PE-SIINFEKL-bound MHC antibody to determine the levels of SIINFEKL presentation. Presentation of SIINFEKL was enhanced after pre-treatment with Gemcitabine highlighting the potential of boosting CD8+ T cell recognition of tumour cells through combining the nanoformulation with Gemcitabine;
FIG. 9: illustrate the results of Gemcitabine enhances the presentation of Ovalbumin-derived SIINFEKL encapsulated within nanoparticles: MC38 cells were pre-treated with 7.5, 15 and 30 nm Gemcitabine for 24 hours. Then, the cells were treated with OVA-NPs for 6 hours. After 6 hours, cells were stained with PE-SIINFEKL-Bound MHC antibody and an isotype control antibody to determine levels of OVA-derived SIINFEKL presentation. NP-encapsulated OVA-derived SIINFEKL was seen to be enhanced after pre-treatment with Gemcitabine;
FIG. 10: illustrate the results of Epigenetic modifying agents (EMAs) enhance the presentation of Ovalbumin-derived SIINFEKL encapsulated within nanoparticles: MC38 cells were pre-treated with Entinostat and Decitabine. After 24 hours, cells were treated with OVA-NPs (250 μg/mL) for 6 hours. Cells were stained with SIINFEKL-bound MHC antibody and the surface presentation of SIINFEKL was determined by flow cytometry. Both agents in combination enhanced SIINFEKL presentation;
FIG. 11: illustrate the results of Lysosome disruptive agent L-leucyl-L-leucine methyl ester (LLOME) enhances the presentation of Ovalbumin-derived SIINFEKL encapsulated within nanoparticles: MC38 cells were pre-treated with LLOME for 24 hours. Then, the cells were treated with OVA-NPs for 6 hours. After 6 hours, cells were stained with PE-SIINFEKL-bound MHC antibody and an isotype control antibody to determine levels of OVA-derived SIINFEKL presentation. NP-encapsulated OVA-derived SIINFEKL was seen to be enhanced after pre-treatment with LLOME;
FIG. 12: illustrate the results of the anti-malarial Mefloquine enhances the presentation of Ovalbumin-derived SIINFEKL encapsulated within nanoparticles: MC38 cells were pre-treated with Mefloquine for 24 hours. Then, the cells were treated with OVA-NPs for 6 hours. After 6 hours, cells were stained with PE-SIINFEKL-bound MHC antibody and an isotype control antibody to determine levels of OVA-derived SIINFEKL presentation. NP-encapsulated OVA-derived SIINFEKL was seen to be enhanced after pre-treatment with Mefloquine.
MC38 cells were seeded at 5×10^4 in 6 well plates and left overnight to adhere in 2 mL of the appropriate growth medium. Following this, the cells were treated with 250 μg/mL of either acid terminated poly(lactic-co-glycolic acid) (PLGA) nanoparticles (NPs) or PLGA NPs encapsulating the SIINFEKL peptide (for cells treated at 4 degrees C., cells were maintained at 4° C. for 45 minutes prior to treatment). Following treatment, the cells were washed 3 times with sterile PBS (4° C. treatment group were washed on ice) and the cells incubated for a following 6 hours at 37° C. The surface expression of SIINFEKL was determined by flow cytometry.
MC38 cells were seeded at 5×10^4 in 6 well plates and left overnight to adhere in 2 mL of the appropriate growth medium. Following this, the cells were treated with 250 μg/mL of either acid terminated poly(lactic-co-glycolic acid) (PLGA) nanoparticles (NPs) or PLGA NPs encapsulating the Ovalbumin protein. Free, pre-processed SIINFEKL was used as a positive control. Cells were incubated for 24 hours at 37° C. Following this, the cells were collected and incubated with a PE-conjugated antibody specific for MHC-I bound to the SIINFEKL peptide (Biolegend, USA). Next, presentation of the SIINFEKL peptide was assessed by flow cytometry. […]

[1] = target: SIINFEKL bound to MHC class I on the cell surface (UniProt P01901); experiment: flow cytometry, JAWS II cells treated with free SIINFEKL
JAWS II cells = experiment: Flow cytometry of SIINFEKL presentation on MHC I (SIINFEKL-bound MHC antibody) in JAWS II dendritic cell line; type: cell-based; conditions: FIG. 5, free SIINFEKL positive control, 6 hours
Protocol: FIG. 5: illustrate the results of Nanoparticle encapsulated SIINFEKL is presented on MHC I in the JAWS II dendritic cell line: JAWS II cells were seeded in 6 well plates at 1×10^5 and left overnight. The following day, cells were treated with either 500 μg of PLGA-SIINFEKL NP (SIINFEKL NP), PLGA NP (B-NP) or free SIINFEKL (Positive control). The cells were incubated at 37° C. in 5% CO2 for 6 hours. After incubation, an antibody specific for SIINFEKL bound to MHC I was used to detect cell surface expression of the antigen. Assessment was undertaken using flow cytometry. An Isotype specific IgG control (SIINFEKL IgG) was used to detect non-specific binding of the antibody. […] Diagram is a representative figure from 3 independent experiments;
FIG. 6: illustrate the results of Presentation of nanoparticle-encapsulated SIINFEKL is dependent on endocytosis: (A) JAWS II cells and (B) MC38 cells ells were treated with either 250 μg/mL blank nanoparticles (B-NP), 250 μg/mL nanoparticles encapsulating the SIINFEKL peptide (SIINFEKL-NP) or 1 μM free SIINFEKL (positive control) for 1 hour at either 4° C. or 37° C. Cells were washed to remove non-endocytosed nanoparticles or free peptide and were incubated at 37° C. Cells were stained with SIINFEKL-bound MHC antibody and SIINFEKL presentation was determined by flow cytometry. […]

[2] = FIG. 11 and 12, MC38 cells pre-treated for 24 hours

`Nc1ccccc1NC(=O)c1ccc(CNC(=O)OCc2cccnc2)cc1` [Entinostat] was tested. Which “SIINFEKL presentation after pre-treatment, both agents in combination” value (MC38 cells; FIG. 10, MC38 cells pre-treated with Entinostat and Decitabine 24 hours, then OVA-NPs (250 μg/mL) for 6 hours) did it give?
Its value is “enhanced”.

Which results are given for `Nc1ccn([C@@H]2O[C@H](CO)[C@@H](O)C2(F)F)c(=O)n1` [Gemcitabine]?
Presentation of SIINFEKL after pre-treatment (MC38 cells; FIG. 8, MC38 cells pretreated with 30 nm Gemcitabine for 24 hours, then 1 μM SIINFEKL peptide for 6 hours): enhanced; presentation of NP-encapsulated OVA-derived SIINFEKL after pre-treatment (MC38 cells; FIG. 9, MC38 cells pre-treated with 7.5, 15 and 30 nm Gemcitabine for 24 hours): enhanced

How did the “presentation of NP-encapsulated OVA-derived SIINFEKL after pre-treatment” value (MC38 cells; [2]) turn out when `COC(=O)[C@H](CC(C)C)NC(=O)[C@@H](N)CC(C)C` [LLOME, L-leucyl-L-leucine methyl ester] was run?
Its value is “enhanced”.

How did the “presentation of NP-encapsulated OVA-derived SIINFEKL after pre-treatment” value (MC38 cells; [2]) turn out when `OC(c1cc(C(F)(F)F)nc2c(C(F)(F)F)cccc12)C1CCCCN1` (centres unmarked) [Mefloquine] was run?
Its value is “enhanced”.

“PE-conjugated antibody specific for MHC-I bound to the SIINFEKL peptide (Biolegend, USA)” was tested. Which positive cells [1] did it give?
The positive cells was 100%.

“SIINFEKL (Model Peptide) [SIINFEKL peptide, positive control]” was tested. Which “cells positive for SIINFEKL-MHC I antibody staining” value (JAWS II cells) did it give?
The value was ~100%.

What about the “SIINFEKL on the cell surface (fluorescent signal, geomean)” value (MC38 cells; FIG. 3, MC38 cells, 1 μM SIINFEKL peptide for 4 hours) of the same molecule?
Its value is “high levels SIINFEKL on the surface”.
